Data taken from patent publication US20090018111A1, “Novel Antimicrobial Medicament” (priority 2004, published 2009).
Where two headings read alike, the source gives them in different places.

What was measured:
[1] = tested on: 18 bacteria (27 standard strains); assay: Sensitivity test, combination effect over the standard strains; type: cell-based; details: in combination with compound 1, standard strains
Method: (§1) The antibacterial activities were tested against various 18 bacteria (27 standard strains) which are representative bacteria caused clinically infectious disease (Staphylococcus aureus 3 strains, Staphylococcus epidermidis 1 strain, Micrococcus luteus 1 strain, Streptococcus pyogenes 1 strain, Enterococcus faecalis 1 strain, Enterococcus faecium 1 strain, Bacillus subtilis 1 strain, Escherichia coli 3 strains, Klebsiella pneumoniae 1 strain, Proteus mirabilis 1 strain, Proteus vulgaris 2 strains, Pseudomonas aeruginosa 3 strains, Serratia marcescens 2 strains, Enterobacter aerogenes 1 strain, Stenotrophomonas maltophilia 1 strain, Enterobacter cloacae 1 strain, Citrobacter freundii 1 strain, Moraxella catarrhalis 2 strains).
(§2) According to the standard method of Japan Chemotherapeutic Society (Chemotherapy, vol. […], p 76-79 (1981)) the test was carried out using the agar dilution method. After dissolving test samples in distilled water, agar medium containing the test samples was prepared in such a manner that the final concentration became twice serial dilution by pouring serially diluted combination drug solution or a single drug solution into agar medium. As agar medium was used Mueller Hinton Agar medium (MHA). Then, each strain was cultivated over night at 37° C. in an incubator and suspended in buffered saline solution with gelatin (BSG) in the concentration of about 10^6 CFU/ml. The suspension (about 5 μl) containing test strains was inoculated to the medium containing the test samples by Micro Planter.
(§3) When the sample is subjected to sensitivity test, this mixed solution was diluted by twice serial dilution method.
(§4) FIC index based on MIC value was calculated. […] Namely, when FIC index calculated by the following formula is equal or less than 1, the enhanced effect of the combination drug in said ratio is considered as positive. When FIC index is over 1, the enhanced effect of the combination drug in said ratio is considered as negative.
(§5) Formula of FIC index: FIC index=(MIC of Drug A in combination/MIC of Drug A alone)+(MIC of Drug B in combination/MIC of Drug B alone) N.C. in tables means being not calculated.

E. cloacae GN7471 = assay: Sensitivity test (agar dilution); type: cell-based, Enterobacter cloacae; details: Enterobacter cloacae, E. cloacae GN7471
Method: as §1, §2, §3
Furthermore, when the drug is solely used, each test sample was used as it is, and diluted by twice serial dilution method from the maximum concentration to the minimum concentration.
as §4, §5

[2] = GN7471, drug alone, read-out: MIC alone

Compound | combination effect [1] | MIC (E. cloacae GN7471; GN7471, Concomitant (DRPM:SM = 1:1), read-out: MIC concomitant) | MIC (E. cloacae GN7471; [2]) | MIC (E. cloacae GN7471; GN7471, Concomitant (PAPM:SM = 1:1), read-out: MIC concomitant) | MIC (E. cloacae GN7471; GN7471, Concomitant (PIPC:SM = 1:1), read-out: MIC concomitant)
C[C@@H](O)[C@H]1C(=O)N2C(C(=O)O)=C(S[C@@H]3CN[C@H](CNS(N)(=O)=O)C3)[C@H](C)[C@H]12 [DRPM, doripenem] | the combination effect was recognized | 0.031 µg/mL | 0.031 µg/mL |  | 
CC(=N)N1CC[C@H](SC2=C(C(=O)O)N3C(=O)[C@H]([C@@H](C)O)[C@H]3C2)C1 [PAPM, panipenem] | the combination effect was recognized |  | 0.25 µg/mL | 0.125 µg/mL | 
CCN1CCN(C(=O)N[C@@H](C(=O)N[C@@H]2C(=O)N3[C@@H]2SC(C)(C)[C@@H]3C(=O)O)c2ccccc2)C(=O)C1=O [PIPC, piperacillin] | antagonism was recognized |  | 16 µg/mL |  | 8 µg/mL
